Key:
[1] = system: Phosphorylation of MEK1/2 in AsPC1 cells; experiment: 4 hour pMEK1/2 MSD Assay; type: cell-based; conditions: Homo sapiens; AsPC1, 4 hours; read-out: pMEK IC50
Description: AsPC1 cells were seeded at 10,000 cells/well overnight in 96-well plates, then treated with a 12-point dose response of compounds (Starting dose of 1000 nM and 3-fold dilution) for 4 hours. AsPC1 cells are a K-Ras mutant (G12D) pancreatic cancer cell line. Phosphorylation of MEK1/2 on residues Ser217 and Ser221 were detected using a MesoScale Discovery (MSD) assay (MSD Cat #K15129D-2). MEK1/2 phosphorylation levels were normalized to total MEK1/2 protein detected in each well on the same MSD plate. IC50 values were determined by fitting a variable slope, four parameters curve to the compound concentration to normalized Phospho-MEK1/2 relationship.

uMEK/BRAF = uMEK/BRAF (Homo sapiens (Human), UniProt Q02750); experiment: MEK-RAF Binding Assay (uMEK/BRAF HTRF)
Pharmacokinetics in rat = type: in vivo; conditions: plasma, IV, 0.2 mg/kg
pERK HCT-116 (G13D) = pERK HCT-116 (G13D) ICW (4 hour); type: cell-based; conditions: Homo sapiens, read-out: pERK HCT-116 (G13D) ICW (4 hour): Average IC50 (nM)
MEK1-CRAF complex = MEK1-CRAF complex (Homo sapiens (Human), UniProt Q02750); experiment: Stabilization of MEK1-CRAF complex assay (AlphaLISA); type: binding
Description: MEK1 was diluted to 4 nM, and nickel chelate donor beads and glutathione acceptor beads were diluted to 80 μg/mL. CRAF was diluted to a top concentration of 160 nM, which was subsequently diluted to 80, 40, 20, 10, 5, 2.5, 1.25, and 0.625 nM through 1:2 serial dilution.
Exemplary MEK inhibitor compounds (0, 0.01, 0.1, or 1 μM) were added to a 384-AlphaPlate (PerkinElmer, 6008350) by a digital liquid dispenser (Tecan D300e) based on a total volume of 20 μL reaction mixture.
5 μL 4×MEK1 stock solution was added to wells A1-P20 by multichannel pipettes. The plate was sealed with clear olefin sealing tape (Thermo Scientific, 232701), centrifuged at 1000 rpm for 1 minute, and incubated at room temperature for 30 minutes.
5 μL 4×CRAF stock solution at different concentrations or 5 μL or 10 μL AlphaLISA buffer was added by multichannel pipettes. The plate was sealed, centrifuged at 1000 rpm for 1 minute, and incubated at room temperature for 60 minutes.
5 μL 4×glutathione acceptor beads were first added to all wells by multichannel pipettes. The ambient light was subsequently adjusted to <100 lux (light meter) before adding 5 μL 4×nickel chelate donor beads to the same wells. From this step on, the plate was covered with a black plate cover, centrifuged at 1000 rpm for 1 minute, and incubated at room temperature for 60 minutes.
Data were collected on a PHERAStar FSX (BMG LABTECH) using the AlphaLISA module (excitation: 680 nm, emission: 615 nm), with a gain of 3600. The excitation time was 0.30 seconds, and data collection started after a 0.04-second delay for a total integration time of 0.60 seconds.
The individual AlphaLISA counts of wells with exemplary MEK inhibitor compound were divided by the average AlphaLISA counts of wells without compound to obtain AlphaLISA signal/background ratio (S/B). The dissociation constant (KD) of MEK1-CRAF was calculated using nonlinear regression curve fit in GraphPad PRISM® 9.0 software.

[2] = Cassette pharmacokinetics studies in mice; type: in vivo; conditions: male, Balb/c, plasma, Mouse
Method in brief: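 Male Balb/c mice (3 per route) received cassette doses in 5% DMSO/95% PEG400 at 2 mg/kg IV (1 mg/kg where IV*) or 5 mg/kg PO. Plasma sampled to 24 h, acetonitrile-precipitated with internal standard, quantified by HPLC/MS/MS against 0.5-1,000 ng/mL standards.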

Chain of MEK1-CRAF complex (Q02750 whole entry, looked up): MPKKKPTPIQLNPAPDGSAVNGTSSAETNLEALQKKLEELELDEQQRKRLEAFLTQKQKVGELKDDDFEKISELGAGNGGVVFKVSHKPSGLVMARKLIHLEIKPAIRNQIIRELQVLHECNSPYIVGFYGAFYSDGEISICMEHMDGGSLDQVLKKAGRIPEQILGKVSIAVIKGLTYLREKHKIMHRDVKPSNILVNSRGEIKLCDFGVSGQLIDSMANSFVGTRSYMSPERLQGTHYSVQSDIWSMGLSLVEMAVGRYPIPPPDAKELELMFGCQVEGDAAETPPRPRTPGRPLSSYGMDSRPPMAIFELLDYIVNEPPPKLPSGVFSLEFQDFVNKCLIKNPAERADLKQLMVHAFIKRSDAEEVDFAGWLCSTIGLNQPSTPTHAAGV
Chain of MEK1-CRAF complex (P04049 whole entry partner, looked up): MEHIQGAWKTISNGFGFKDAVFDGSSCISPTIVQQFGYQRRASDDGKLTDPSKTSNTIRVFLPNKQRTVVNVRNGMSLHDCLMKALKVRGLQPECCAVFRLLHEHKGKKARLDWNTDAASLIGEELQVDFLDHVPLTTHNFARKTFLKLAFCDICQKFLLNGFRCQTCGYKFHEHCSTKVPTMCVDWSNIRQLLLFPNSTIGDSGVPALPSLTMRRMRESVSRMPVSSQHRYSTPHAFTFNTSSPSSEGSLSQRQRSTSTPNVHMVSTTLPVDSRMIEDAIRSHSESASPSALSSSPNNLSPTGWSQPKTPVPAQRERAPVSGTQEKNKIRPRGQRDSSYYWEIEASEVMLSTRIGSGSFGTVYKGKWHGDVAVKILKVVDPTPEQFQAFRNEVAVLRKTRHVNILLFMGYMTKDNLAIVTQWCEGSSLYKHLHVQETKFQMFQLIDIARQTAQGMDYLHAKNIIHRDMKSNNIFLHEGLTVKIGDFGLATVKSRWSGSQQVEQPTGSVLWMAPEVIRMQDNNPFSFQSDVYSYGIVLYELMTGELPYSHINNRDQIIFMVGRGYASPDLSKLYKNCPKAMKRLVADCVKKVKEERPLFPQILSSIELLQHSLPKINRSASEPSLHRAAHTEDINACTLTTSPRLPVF
Chain of uMEK/BRAF (Q02750 whole entry): as the sequence (Q02750 whole entry, looked up) above

IC50 [1]: < 100 nM
IC50 (uMEK/BRAF): < 100 nM
AUC(0-inf) (Pharmacokinetics in rat): 107 ng·h/mL
AUC(0-t) (Pharmacokinetics in rat): 100 ng·h/mL
clearance (Pharmacokinetics in rat): 31.9 mL/min/kg
half-life (Pharmacokinetics in rat): 144 min
Vd (Pharmacokinetics in rat; read-out: Vdss): 4.2 L/kg
IC50 (pERK HCT-116 (G13D)): < 100 nM
KD Ratio (mean), compound to DMSO (MEK1-CRAF complex; compound 0.01 μM): 0.80
KD Ratio (mean), compound to DMSO (MEK1-CRAF complex; compound 0.1 μM): 0.55
KD Ratio (mean), compound to DMSO (MEK1-CRAF complex; compound 1 μM): 0.42
AUC(0-inf) ([2]; IV, 2 mg/kg): 455 ng·h/mL
AUC(0-t) ([2]; IV, 2 mg/kg): 452 ng·h/mL
clearance ([2]; IV, 2 mg/kg): 74.9 mL/min/kg
half-life ([2]; IV, 2 mg/kg): 100 min
Vd ([2]; IV, 2 mg/kg, read-out: Vdss): 3.2 L/kg
AUC(0-inf) ([2]; PO, 5 mg/kg): 635 ng·h/mL
AUC(0-t) ([2]; PO, 5 mg/kg): 614 ng·h/mL
Cmax ([2]; PO, 5 mg/kg): 432 ng/mL
Tmax ([2]; PO, 5 mg/kg): 24 min
half-life ([2]; PO, 5 mg/kg): 696 min
Structure (SMILES): CNS(=O)(=O)Nc1cccc(Oc2c(C(=O)NC3CC3)c(Nc3ccc(I)cc3F)n(C)c(=O)c2C)c1OC [Compound I-1]

From patent US20230382863A1, “MEK INHIBITORS AND USES THEREOF” (Ikena Oncology, Inc., priority 2022, published 2023)
